# Data taken from ChEMBL document CHEMBL5344458, “AI in Pharma: Transforming Drug Discovery and Strategic Management with MYC-Modulating Compounds and BET Protein Inhibitors” (ACS Med Chem Lett, 2024).
# What was measured:
# [1] = Half life in Sprague-Dawley rat at 1 mg/kg,iv administration by LC-MS/MS analysis; format: ADME, organism-based; settings: in vivo
# [2] = Oral bioavailability in Sprague-Dawley rat at 5 mg/kg administration by LC-MS/MS analysis; format: ADME, organism-based; settings: in vivo
half-life [1] [min],bioavailability [2] [%],Compound
24,47,CNC(=O)c1[nH]c(C(=O)NC2CCC2)cc1OC(C)c1ccc(Cl)cc1 (stereo not drawn)
54,66,CNC(=O)c1[nH]c(C(=O)NC2CCC2)cc1OC(C)c1ccccc1 (stereo not drawn)
–,70,CNC(=O)c1[nH]c(C(=O)NC2CC2)cc1O[C@@H](C)c1ccccc1F
24,46,CCNC(=O)c1cc(OC(C)c2ccccc2F)c(C(=O)NC)[nH]1 (stereo not drawn)
36,15,CNC(=O)c1[nH]c(C(=O)NC2COC2)cc1OC(C)c1ccc(Cl)cc1 (stereo not drawn)
66,30,CCNC(=O)c1cc(OC(C)c2ccc(Cl)cc2)c(C(=O)NC)[nH]1 (stereo not drawn)
30,58,CNC(=O)c1[nH]c(C(=O)NC2CCC2)cc1OC(C)c1ccccc1F (stereo not drawn)
84,66,CNC(=O)c1[nH]c(C(=O)N[C@H]2CC[C@H](O)CC2)cc1OC(C)c1ccc(Cl)cc1F (stereo partly drawn)
18,69,CCNC(=O)c1cc(OC(C)c2ccc(Cl)cc2F)c(C(=O)NC)[nH]1 (stereo not drawn)
–,65,"CNC(=O)c1[nH]c(C(=O)NC2CCC2)cc1OC(C)c1ccc(Cl)cc1F (single isomer, unassigned)"
